Results published in PubChem BioAssay (NCI).
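Five concentrations, 48 hours, 96-well plates. GI50 = concentration required for 50% inhibition of growth. At the TGI there is no net growth.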

Tests used:
Assay in all cases: DTP human tumour cell line panel, 48 h
HCC-2998 colon = system: HCC-2998 colon
HL-60(TB) leukemia = system: HL-60(TB) leukemia
M14 melanoma = system: M14 melanoma
NCI-H460 lung = system: NCI-H460 lung
SF-539 CNS = system: SF-539 CNS
SNB-75 CNS = system: SNB-75 CNS
CCRF-CEM leukemia = system: CCRF-CEM leukemia
MALME-3M melanoma = system: MALME-3M melanoma
SK-OV-3 ovarian = system: SK-OV-3 ovarian
MDA-MB-231 breast = system: MDA-MB-231 breast

SMILES | TGI (HCC-2998 colon) [µM] | TGI (HL-60(TB) leukemia) [µM] | TGI (M14 melanoma) [µM] | TGI (NCI-H460 lung) [µM] | TGI (SF-539 CNS) [µM] | TGI (SNB-75 CNS) [µM] | TGI (CCRF-CEM leukemia) [µM] | TGI (MALME-3M melanoma) [µM] | TGI (SK-OV-3 ovarian) [µM] | GI50 (CCRF-CEM leukemia) [µM] | GI50 (HCC-2998 colon) [µM] | GI50 (HL-60(TB) leukemia) [µM] | GI50 (M14 melanoma) [µM] | GI50 (MALME-3M melanoma) [µM] | GI50 (NCI-H460 lung) [µM] | GI50 (SF-539 CNS) [µM] | GI50 (SK-OV-3 ovarian) [µM] | GI50 (SNB-75 CNS) [µM] | GI50 (MDA-MB-231 breast) [µM] | TGI (MDA-MB-231 breast) [µM]
O=C(Nc1ccc(N=Nc2ccccc2)cc1)Sc1ccccc1C(=O)O | > 100 | > 100 | > 100 | > 100 | > 100 | > 100 |  |  |  |  |  |  |  |  |  |  |  |  |  | 
CCC12CC[C@H](C#N)N3CCc4c(n(c5ccccc45)C(=O)C1)C32 (stereo partly drawn) | 32.4 |  | 44.9 | 33.8 | 38.2 | 27.6 | 44.3 | 19.3 | 75 |  |  |  |  |  |  |  |  |  |  | 
COC1=CC(C)C2C[C@H]3O[C@H](O)C[C@H]4C(C)C(=O)C(O)C([C@@]2(C)C1=O)[C@@]34C (stereo partly drawn) | > 100 |  | > 100 | > 100 | > 100 | > 100 | > 100 | > 100 | > 100 |  |  |  |  |  |  |  |  |  |  | 
O=C1CC(c2ccccc2)NCN1 (stereo not drawn) | > 100 | > 100 | > 100 |  |  | > 100 | > 100 | > 100 | > 100 |  |  |  |  |  |  |  |  |  |  | 
NC(=S)N/N=C1\C(=O)N(c2cccc([N+](=O)[O-])c2)C(=O)C1C(=O)Nc1cccc([N+](=O)[O-])c1 (stereo not drawn) | > 100 | > 100 | > 100 |  | > 100 | > 100 | > 100 | > 100 | > 100 |  |  |  |  |  |  |  |  |  |  | 
N#CC(c1ccc(Cl)cc1)c1cccc(Cl)n1 (stereo not drawn) | > 100 | > 100 | > 100 | > 100 |  | 84.3 | > 100 | > 100 | > 100 |  |  |  |  |  |  |  |  |  |  | 
COc1cc2c(cc1OCCCCCN1CCN(c3cc(=O)oc4c(C)c(OC)ccc34)CC1)N=C[C@@H]1CCCN1C2=O | 0.0372 | 1.2 | 0.0225 | 1.71 | 0.128 | < 0.0281 | 0.106 | 0.0531 | 12.8 | < 0.01 | 0.0111 | < 0.01 | 0.0101 | 0.0182 | 0.0197 | < 0.0112 | 0.0435 | < 0.0155 |  | 
Cc1cccc(Oc2ccc(Nc3ncnc4ccc(NC(=O)CN5CCN(C)CC5)cc34)cc2Cl)c1 | 3.04 |  | 3.38 | 3.28 | 3.19 | 2.81 | 5.21 | 3.16 |  | 2.06 | 1.58 |  | 1.72 | 1.59 | 1.75 | 1.73 |  | 1.44 | 1.66 | 3.17
c1cc2[se][se]c3c4cccc5[se][se]c(c(c1)c23)c54 |  | > 100 | > 100 | > 100 | > 100 | > 100 | > 100 | > 100 | > 100 |  |  |  |  |  |  |  |  |  |  | 
C/C=C/CP(=O)(c1ccccc1)c1ccccc1 | > 100 | > 100 | > 100 | > 100 | > 100 | > 100 | > 100 | > 100 | > 100 |  |  |  |  |  |  |  |  |  |  | 
Cc1nc(Nc2ccccc2)sc1C(=O)NNC(N)=O | > 100 | > 100 | > 100 | > 100 | > 100 | 80.7 | > 100 | > 100 | > 100 |  |  |  |  |  |  |  |  |  |  | 
O[C@H]1[C@H]2[C@H](O)CCCN2C[C@H]1O | > 100 | > 100 | > 100 | > 100 | > 100 | > 100 | > 100 | > 100 | > 100 |  |  |  |  |  |  |  |  |  |  | 
CC(=O)[CH-]C(C)=O.CC(=O)[CH-]C(C)=O.CC(=O)[CH-]C(C)=O.[Cl-].[Hf+4] | > 100 | > 100 | > 100 | > 100 | > 100 |  | > 100 | > 100 | > 100 | > 100 | > 100 | > 100 | > 100 | > 100 | > 100 | > 100 | > 100 |  |  | 
CC(=O)Oc1cc2c(=O)oc3c(OC(C)=O)c(OC(C)=O)c(OC(C)=O)c4c(=O)oc(c1OC(C)=O)c2c34 | > 100 | > 100 | > 100 | > 100 | 75.5 | > 100 | 63.3 | > 100 | > 100 |  |  |  |  |  |  |  |  |  |  | 
CO/C=C/c1cc2c(cc1C(OC)OC)OCO2 | > 100 | 18.9 | 87.9 | > 100 | > 100 | 36.8 | > 100 | > 100 | 79.3 |  |  |  |  |  |  |  |  |  |  | 
